# From US20230167105A1, “BCL-2 PROTEIN INHIBITORS” (Recurium IP Holdings, LLC, priority 2020, published 2023)
# What was measured:
# MOLT-4 cells = experiment: MOLT-4 Cell Proliferation Assay (CellTiter-Glo); type: cell-based; settings: Homo sapiens, 72 h, read-out: MOLT-4 CTG IC50
# Method in brief: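 MOLT-4 cells at 50,000/well in serum-supplemented medium received a 10-point 1:3 dilution series (top 10 μM final, 0.1% DMSO) in duplicate for 72 h at 37 °C. Viability was read as CellTiter-Glo luminescence, and IC50 came from nonlinear regression.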
# Bcl-xL = target: T1, Bcl-xL (Homo sapiens, UniProt Q07817); experiment: Protein Degradation Assay in MOLT-4 Cells (Western blot); type: cell-based; settings: for BCL-xL degradation in MOLT-4 cells: 50 nM compound, 16 hours, FIGS. 7 and 8
# T1 construct: endogenous in cells; host or cells: MOLT-4 (ATCC CRL-1582)
# T1 sequence (Q07817 whole entry): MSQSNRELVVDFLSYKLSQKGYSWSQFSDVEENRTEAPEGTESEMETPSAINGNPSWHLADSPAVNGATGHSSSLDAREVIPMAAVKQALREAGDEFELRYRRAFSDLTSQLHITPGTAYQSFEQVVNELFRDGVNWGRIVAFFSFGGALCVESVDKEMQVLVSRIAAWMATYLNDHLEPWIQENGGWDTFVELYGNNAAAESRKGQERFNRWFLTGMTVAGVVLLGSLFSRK
# Experimental: MOLT-4 (ATCC, CRL-1582) (FIGS. 7,8) were incubated with vehicle or 50 nM concentrations of the indicated compounds for 16 hours. For proteasome inhibition, MOLT-4 cells (250,000 cells/well) were pretreated with 1 μM of MG132 for 1 hour before the addition of 100 nM of the indicated compounds for 16 h. After treatment, the cells were harvested in RIPA lysis buffer supplemented with 1% Phosphatase Inhibitor and Protease Inhibitor Cocktail. An equal amount of protein (10 μg/lane) from each cell extract was resolved on a 4-12% Bis-Tris gel. Proteins were transferred using iBlot 2 Transfer Stacks. The membranes were blocked with 5% nonfat milk in TBS-T buffer (50 mM Tris-HCL, pH 7.6; 150 mM NaCl; and 0.05% Tween) and probed with primary antibodies (1:1000 dilution) overnight at 4° C. After three washes with TBS-T (10 min/wash), the membranes were incubated with an appropriate peroxidase-conjugated secondary antibody (Cell Signaling Technology, USA) for 1 hour at rt. After three washes with TBS-T, the proteins of interest were detected with ECL Western Blotting Detection Reagents and captured with an Azure imaging system. The band intensities were determined using ImageJ software and normalized to loading control β-actin or GAPDH. The primary antibodies Bcl-xL (#2762), Bcl-2 (#2872s), and GAPDH (#5174) were purchased from Cell Signaling Technology.
IC50 (MOLT-4 cells) [nM],BCL-xL degradation in MOLT-4 cells (Bcl-xL),Compound,"BCL-xL degradation in MOLT-4 cells, dose dependence (Bcl-xL; FIG. 9)","Bcl-xL degradation with proteasome inhibitor MG132 (Bcl-xL; MOLT-4 cells pretreated with 1 μM MG132 for 1 hour, then 100 nM compound for 16 h, FIG. 10)"
50 to 150,induce BCL-xL degradation,"Cc1ncsc1-c1ccc([C@H](C)NC(=O)[C@@H]2C[C@@H](O)CN2C(=O)[C@@H](NC(=O)CCCCCC(=O)N(C)C2CCN(CC[C@H](CSc3ccccc3)Nc3ccc(S(=O)(=O)NC(=O)c4ccc(N5CCN(CC6=C(C78CC(C(F)F)(C7)C8)CC(C)(C)CC6)CC5)cc4)cc3S(=O)(=O)C(F)(F)F)CC2)C(C)(C)C)cc1 [Example 44, N1-(1-((R)-3-((4-(N-(4-(4-((2-(3-(difluoromethyl)bicyclo[1.1.1]pentan-1-yl)-4,4-dimethylcyclohex-1-en-1-yl)methyl)piperazin-1-yl)benzoyl)sulfamoyl)-2-((trifluoromethyl)sulfonyl)phenyl)amino)-4-(phenylthio)butyl)piperidin-4-yl)-N7-((S)-1-((2S,4R)-4-hydroxy-2-(((S)-1-(4-(4-methylthiazol-5-yl)phenyl)ethyl)carbamoyl)pyrrolidin-1-yl)-3,3-dimethyl-1-oxobutan-2-yl)-N1-methylheptanediamide]",–,–
50 to 150,induce BCL-xL degradation,"Cc1ncsc1-c1ccc([C@H](C)NC(=O)[C@@H]2C[C@@H](O)CN2C(=O)[C@@H](NC(=O)CCCCCC(=O)N2CCN(CC[C@H](CSc3ccccc3)Nc3ccc(S(=O)(=O)NC(=O)c4ccc(N5CCN(CC6=C(C78CC(C(F)F)(C7)C8)CC(C)(C)CC6)CC5)cc4)cc3S(=O)(=O)C(F)(F)F)CC2)C(C)(C)C)cc1 [Example 6, (2S,4R)-1-((S)-2-(7-(4-((R)-3-((4-(N-(4-(4-((2-(3-(difluoromethyl)bicyclo[1.1.1]pentan-1-yl)-4,4-dimethylcyclohex-1-en-1-yl)methyl)piperazin-1-yl)benzoyl)sulfamoyl)-2-((trifluoromethyl)sulfonyl)phenyl)amino)-4-(phenylthio)butyl)piperazin-1-yl)-7-oxoheptanamido)-3,3-dimethylbutanoyl)-4-hydroxy-N—((S)-1-(4-(4-methylthiazol-5-yl)phenyl)ethyl)pyrrolidine-2-carboxamide]",can induce BCL-xL degradation in MOLT-4 cells in a dose dependent manner,can be inhibited by proteasome inhibitor MG132
50 to 150,induce BCL-xL degradation,"Cc1ncsc1-c1ccc([C@H](C)NC(=O)[C@@H]2C[C@@H](O)CN2C(=O)[C@@H](NC(=O)CCCCCC(=O)N2CCN(CC[C@H](CSc3ccccc3)Nc3ccc(S(=O)(=O)NC(=O)c4ccc(N5CCN(CC6=C(C78CC(C)(C7)C8)CC(C)(C)CC6)CC5)cc4)cc3S(=O)(=O)C(F)(F)F)CC2)C(C)(C)C)cc1 [Example 9, (2S,4R)-1-((S)-2-(7-(4-((R)-3-((4-(N-(4-(4-((4,4-dimethyl-2-(3-methylbicyclo[1.1.1]pentan-1-yl)cyclohex-1-en-1-yl)methyl)piperazin-1-yl)benzoyl)sulfamoyl)-2-((trifluoromethyl)sulfonyl)phenyl)amino)-4-(phenylthio)butyl)piperazin-1-yl)-7-oxoheptanamido)-3,3-dimethylbutanoyl)-4-hydroxy-N—((S)-1-(4-(4-methylthiazol-5-yl)phenyl)ethyl)pyrrolidine-2-carboxamide]",–,–
